Read-outs that look alike come from different tables or passages of the source.
How the values were obtained:
[1] = tested on: hepatitis B surface antigen (HBsAg); assay: Determination of hepatitis B surface antigen (HBsAg) in HepG2.2.15 cell supernatant; type: cell-based, hepatitis B virus (HepG2.2.15 cells); details: Hepatitis B virus, HepG2.2.15, 96 h, read-out: HBsAg inhibitory activity IC50
Experimental: (§1) The full genome of HBV was inserted into an […] cell, which could therefore express HBV continuously (Sells et al, Proc Natl Acad Sci USA. 1987 February; 84 (4):1005-9). The culture condition was DMEM medium containing 10% serum and […] G418. Cells were placed in an incubator containing 5% CO2 and cultured at 37° C.
HepG2.2.15 cells were seeded into a 96-well culture plate at a density of 3×10^4 cells/well. On the next day, the drug dissolved in DMSO was subjected to a 5-fold dilution and then added to the cells. 0.5% DMSO was added separately as control. The supernatant was collected after 4 days of drug action, and the content of hepatitis B surface antigen was determined.
The determination of hepatitis B surface antigen was carried out by using a kit for quantitative determination of hepatitis B virus surface antigen (chemiluminescence method). The specific operations were as follows. 50 μL cell culture supernatant was taken and transferred to the assay plate. 50 μL of enzyme-linked reagent was added thereto and the assay plate was sealed. Incubation was carried out at room temperature for 1 hour. Afterwards, the assay plate was washed six times with PBS, and finally, the residual liquid was removed by shaking the plate. 25 μL of substrates A and B were added respectively, and the determination was conducted by using a microplate reader (Tecan Infinite® F200) after ten minutes of reaction. IC50 was calculated after fitting the dose-response curve.

[2] = tested on: HBV DNA; assay: Determination of HBV DNA in HepG2.2.15 cell supernatant by qPCR; type: cell-based, hepatitis B virus (HepG2.2.15 cells); details: Hepatitis B virus, 168 h, HepG2.2.15 cells, supernatant after a total of 7 days of drug action, read-out: Inhibitory activity against HBV DNA IC50
Experimental: as §1
HepG2.2.15 cells were seeded into a 96-well culture plate at a density of 4×10^4 cells/well. After 4 hours, the drug dissolved in DMSO was subjected to a 4-fold dilution and then added to cells. 0.5% DMSO was added separately as control. On the 4th day of drug action, the original supernatant was removed and then the drug was added thereto again. The supernatant was collected after a total of 7 days of drug action and treated with lysis buffer. The determination of hepatitis B DNA was carried out by real-time fluorescence-based quantitative polymerase chain reaction (qPCR). After the completion of the qPCR, data were exported from the instrument and analyzed, and IC50 indicating antiviral activity was calculated after fitting the dose-response curve.

[3] = Pharmacokinetic experiments in ICR mice (plasma); type: in vivo; details: for AUC(0-t): read-out: AUC0-12
Experimental: Multiple compounds in the Examples of the present disclosure were administered to ICR mice to conduct pharmacokinetic experiments. A single intravenous injection (with a dose of 2 mg/kg) and a single oral administration (with a dose of 10 mg/kg) were administered respectively. Blood was respectively collected prior to administration and 5 minutes, 15 minutes, 30 minutes, 1 hour, 2 hours, 4 hours, 8 hours, 12 hours and 24 hours after administration, and the concentration of the test compound in plasma was determined. Plasma pharmacokinetic data of the control compound (obtained from Example 28 in patent WO2018130152 A1) and the compounds of Examples 10 and 19 in the present disclosure in mice were as shown in the following Table 5 to Table 7.

[4] = mouse, single intravenous injection 2 mg/kg, plasma
[5] = mouse, single oral administration 10 mg/kg, plasma

COCc1ncc(-c2cc3c(cc2OC)-c2cc(=O)c(C(=O)O)cn2C(C(C)(C)C)C3)s1 (centres unmarked) [Example 10, 6-tert-butyl-10-methoxy-9-[2-(methoxymethyl)thiazol-5-yl]-2-oxo-6,7-dihydro-2H-pyrido[2,1-a]isoquinoline-3-carboxylic Acid]
IC50 [1]: 0.2 nM | IC50 [2]: 0.13 nM | bioavailability ([3]; mouse, plasma, oral 10 mg/kg vs intravenous 2 mg/kg, read-out: F (bioavailability)): 33.9% | AUC(0-inf) [3, 4]: 804 ng·h/mL | Cmax [3, 4]: 423 ng/mL | Tmax [3, 4]: 0.08 h | clearance [3, 4]: 41.4 mL/min/kg | half-life [3, 4]: 1.9 h | AUC(0-t) [3, 4]: 796 ng·h/mL | Vd ([3]; mouse, single intravenous injection 2 mg/kg, plasma, read-out: Vss): 5.42 L/kg | AUC(0-inf) [3, 5]: 1400 ng·h/mL | Cmax [3, 5]: 458 ng/mL | Tmax [3, 5]: 0.5 h | half-life [3, 5]: 2.6 h | AUC(0-t) [3, 5]: 1350 ng·h/mL | plasma exposure compared with the control compound ([3]; same dose, after intravenous injection and oral administration): significantly higher

COc1cc2c(cc1-c1cnc(N3CC(F)(F)C3)s1)CC(C(C)(C)C)n1cc(C(=O)O)c(=O)cc1-2 (centres unmarked) [Example 4, 6-tert-butyl-9-[2-(3,3-difluoroazetidin-1-yl)thiazol-5-yl]-10-methoxy-2-oxo-6,7-dihydro-2H-pyrido[2,1-a]isoquinoline-3-carboxylic Acid]
IC50 [1]: 0.045 nM | IC50 [2]: 0.26 nM

COc1cc2c(cc1-c1cnc(COC(F)F)s1)CC(C(C)(C)C)n1cc(C(=O)O)c(=O)cc1-2 (centres unmarked) [Example 23, 6-tert-butyl-9-{2-[(difluoromethoxy)methyl]thiazol-5-yl}-10-methoxy-2-oxo-6,7-dihydro-2H-pyrido[2,1-a]isoquinoline-3-carboxylic Acid]
IC50 [1]: 0.2 nM | IC50 [2]: 0.84 nM

COc1cc2c(cc1-c1cnc(N3CC(OC)C3)s1)CC(C(C)(C)C)n1cc(C(=O)O)c(=O)cc1-2 (centres unmarked) [Example 9, 6-tert-butyl-10-methoxy-9-[2-(3-methoxyazetidin-1-yl)thiazol-5-yl]-2-oxo-6,7-dihydro-2H-pyrido[2,1-a]isoquinoline-3-carboxylic Acid]
IC50 [1]: 0.03 nM | IC50 [2]: 0.1 nM

COc1cc2c(cc1-c1cnc(N3CC(F)C3)s1)CC(C(C)(C)C)n1cc(C(=O)O)c(=O)cc1-2 (centres unmarked) [Example 11, 6-tert-butyl-9-[2-(3-fluoroazetidin-1-yl)thiazol-5-yl]-10-methoxy-2-oxo-6,7-dihydro-2H-pyrido[2,1-a]isoquinoline-3-carboxylic Acid]
IC50 [1]: 0.09 nM | IC50 [2]: 0.13 nM

COc1cc2c(cc1-c1cnc(N3CCC(C)(O)CC3)s1)CC(C(C)(C)C)n1cc(C(=O)O)c(=O)cc1-2 (centres unmarked) [Example 7, 6-tert-butyl-9-[2-(4-hydroxy-4-methylpiperidin-1-yl)thiazol-5-yl]-10-methoxy-2-oxo-6,7-dihydro-2H-pyrido[2,1-a]isoquinoline-3-carboxylic Acid]
IC50 [1]: 0.08 nM | IC50 [2]: 0.15 nM
